# Reference: patent US20240277852A1, “INHIBITORS AND DEGRADERS OF PIP4K PROTEIN” (DANA-FARBER CANCER INSTITUTE, INC., priority 2021, published 2024)
# Columns and labels:
# [1] = molecular target: PIP4K2B (Homo sapiens (Human), UniProt P78356); assay: KINOMEscan PIP5K2B (also known as PIP4K2B) Assay (Eurofins Discovery); format: binding
# Experimental: (§1) The inhibitory activity of the compounds were evaluated using KINOMEscan® PIP5K2B (also known as PIP4K2B) and KINOMEscan® PIP5K2C (also known as PIP4k2C) Assays (Eurofins Discovery) following the manufacturer's standards.
# [2] = molecular target: PIP4K2C (Homo sapiens (Human), UniProt Q8TBX8); assay: KINOMEscan PIP5K2C (also known as PIP4K2C) Assay (Eurofins Discovery); format: binding
# Experimental: as §1
# [3] = molecular target: PIP4K2A (Homo sapiens (Human), UniProt P48426); assay: PIP4K2A inhibitory activity (Table 1); format: biochemical
# Chain of PIP4K2A (P48426 whole entry, species assumed): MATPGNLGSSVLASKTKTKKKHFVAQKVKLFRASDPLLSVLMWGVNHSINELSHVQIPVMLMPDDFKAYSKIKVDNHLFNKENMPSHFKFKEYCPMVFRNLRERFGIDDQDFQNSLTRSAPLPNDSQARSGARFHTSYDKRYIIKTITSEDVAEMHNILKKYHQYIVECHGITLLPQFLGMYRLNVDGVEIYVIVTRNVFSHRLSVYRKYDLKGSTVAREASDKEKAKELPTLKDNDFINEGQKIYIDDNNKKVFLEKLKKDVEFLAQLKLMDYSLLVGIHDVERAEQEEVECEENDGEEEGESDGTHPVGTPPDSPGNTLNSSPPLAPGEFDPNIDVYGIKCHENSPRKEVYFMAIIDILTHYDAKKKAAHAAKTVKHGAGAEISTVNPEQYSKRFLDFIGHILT
# Chain of PIP4K2B (P78356 whole entry): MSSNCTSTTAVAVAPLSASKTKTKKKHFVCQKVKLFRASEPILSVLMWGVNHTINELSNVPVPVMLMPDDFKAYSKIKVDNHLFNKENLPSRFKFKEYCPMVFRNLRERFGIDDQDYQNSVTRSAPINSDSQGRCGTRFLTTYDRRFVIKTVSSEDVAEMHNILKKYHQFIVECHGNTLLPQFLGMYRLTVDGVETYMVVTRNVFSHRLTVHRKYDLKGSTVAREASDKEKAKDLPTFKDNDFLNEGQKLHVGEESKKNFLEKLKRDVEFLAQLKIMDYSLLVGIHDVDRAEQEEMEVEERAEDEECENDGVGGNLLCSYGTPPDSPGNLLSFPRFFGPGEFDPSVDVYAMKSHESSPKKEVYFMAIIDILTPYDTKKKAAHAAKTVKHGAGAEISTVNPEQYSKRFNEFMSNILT
# Chain of PIP4K2C (Q8TBX8 whole entry): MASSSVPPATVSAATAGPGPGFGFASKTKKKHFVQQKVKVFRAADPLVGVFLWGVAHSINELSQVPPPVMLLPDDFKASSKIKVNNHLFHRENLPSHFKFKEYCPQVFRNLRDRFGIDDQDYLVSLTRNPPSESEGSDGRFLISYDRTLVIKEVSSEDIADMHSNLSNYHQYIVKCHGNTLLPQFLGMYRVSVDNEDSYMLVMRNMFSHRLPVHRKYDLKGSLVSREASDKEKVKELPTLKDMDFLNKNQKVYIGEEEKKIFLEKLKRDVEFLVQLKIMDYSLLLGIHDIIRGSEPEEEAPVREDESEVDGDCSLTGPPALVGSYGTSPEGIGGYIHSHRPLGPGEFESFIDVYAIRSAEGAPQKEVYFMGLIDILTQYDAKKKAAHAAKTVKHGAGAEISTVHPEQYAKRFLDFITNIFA
Kd [1] [nM],Kd [2] [nM],IC50 [3] [nM],Compound
> 10000,36,> 10000,Cc1cc(S(N)(=O)=O)ccc1Nc1ncc(Cl)c(-c2cccc(-c3ccccc3)c2)n1 [Compound 1]
–,46,–,"Cc1cc(C(N)=O)ccc1Nc1ncc(Cl)c(-c2cccc(-c3ccccc3)c2)n1 [Compound 5, 4-((4-([1,1′-biphenyl]-3-yl)-5-chloropyrimidin-2-yl)amino)-3-methylbenzamide]"
–,43,–,"Cc1cc(NS(C)(=O)=O)ccc1Nc1ncc(Cl)c(-c2cccc(-c3ccccc3)c2)n1 [Compound 6, N-(4-((4-([1,1′-biphenyl]-3-yl)-5-chloropyrimidin-2-yl)amino)-3-methylphenyl)methanesulfonamide]"
–,270,–,"CC(=O)Nc1ccc(Nc2ncc(Cl)c(-c3cccc(-c4ccccc4)c3)n2)c(C)c1 [Compound 8, N-(4-((4-([1,1′-biphenyl]-3-yl)-5-chloropyrimidin-2-yl)amino)-3-methylphenyl)acetamide]"
> 10000,1400,–,"CC(=O)Nc1ccc(C)c(Nc2ncc(Cl)c(-c3cccc(-c4ccccc4)c3)n2)c1 [Compound 9, N-(3-((4-([1,1′-biphenyl]-3-yl)-5-chloropyrimidin-2-yl)amino)-4-methylphenyl)acetamide]"
–,65,–,"Cc1ccc(C(N)=O)cc1Nc1ncc(Cl)c(-c2cccc(-c3ccccc3)c2)n1 [Compound 10, 3-((4-([1,1′-biphenyl]-3-yl)-5-chloropyrimidin-2-yl)amino)-4-methylbenzamide]"

# The remaining lines, values behind:
Compound,Kd [1] [nM],Kd [2] [nM],IC50 [3] [nM]
CC(=O)N(CC#N)S(=O)(=O)c1ccc(Nc2ncc(Cl)c(-c3cccc(-c4ccccc4)c3)n2)c(C)c1 [Compound 2],> 10000,56,> 10000
"CC(=O)N(C)S(=O)(=O)c1ccc(Nc2ncc(Cl)c(-c3cccc(-c4ccccc4)c3)n2)c(C)c1 [Compound 3, N-((4-((4-([1,1′-biphenyl]-3-yl)-5-chloropyrimidin-2-yl)amino)-3-methylphenyl)sulfonyl)-N-methylacetamide]",> 10000,29,8760
NS(=O)(=O)c1ccc(Nc2ncc(Cl)c(-c3cccc(-c4ccccc4)c3)n2)cc1 [Compound 4],> 10000,64,> 10000
"Cc1ccc(NS(C)(=O)=O)cc1Nc1ncc(Cl)c(-c2cccc(-c3ccccc3)c2)n1 [Compound 7, N-(3-((4-([1,1′-biphenyl]-3-yl)-5-chloropyrimidin-2-yl)amino)-4-methylphenyl)methanesulfonamide]",–,150,–
"CC(=O)Nc1cncc(Nc2ncc(Cl)c(-c3cccc(-c4ccccc4)c3)n2)c1 [Compound 11, N-(5-((4-([1,1′-biphenyl]-3-yl)-5-chloropyrimidin-2-yl)amino)pyridin-3-yl)acetamide]",> 10000,7.2,–
"O=C(Nc1cccc(Nc2ncc(Cl)c(-c3cccc(-c4ccccc4)c3)n2)c1)c1ccccc1 [Compound 12, N-(3-((4-([1,1′-biphenyl]-3-yl)-5-chloropyrimidin-2-yl)amino)phenyl)benzamide]",> 10000,140,–
"O=C(Nc1cncc(Nc2ncc(Cl)c(-c3cccc(-c4ccccc4)c3)n2)c1)c1ccccc1 [Compound 13, N-(5-((4-([1,1′-biphenyl]-3-yl)-5-chloropyrimidin-2-yl)amino)pyridin-3-yl)benzamide]",> 10000,21,–
O=C(Nc1cncc(Nc2ncc(Cl)c(-c3cccc(-c4cccnc4)c3)n2)c1)c1ccccc1 [Compound 14],> 10000,38,–
"O=C1CC[C@H]2COc3ncc(Nc4ncc(Cl)c(-c5cccc(-c6ccccc6)c5)n4)cc3N12 [Compound 15, (S)-2-((4-([1,1′-biphenyl]-3-yl)-5-chloropyrimidin-2-yl)amino)-6,6a,7,8-tetrahydro-9H-pyrido[2,3-b]pyrrolo[1,2-d][1,4]oxazin-9-one]",> 10000,0.45,–
"O=C(COc1cccc2c1C(=O)N(C1CCC(=O)NC1=O)C2=O)NCCOCCOCCNS(=O)(=O)c1ccc(Nc2ncc(Cl)c(-c3cccc(-c4ccccc4)c3)n2)cc1 (centres unmarked) [Compound 36, N-(2-(2-(2-((4-((4-([1,1′-biphenyl]-3-yl)-5-chloro-1|4-pyrimidin-2-yl)amino)phenyl)sulfonamido)ethoxy)ethoxy)ethyl)-2-((2-(2,6-dioxopiperidin-3-yl)-1,3-dioxoisoindolin-4-yl)oxy)acetamide]",–,460,–
"CC(=O)N[C@H](C(=O)N1C[C@H](O)C[C@H]1C(=O)N[C@@H](C)c1ccc(-c2scnc2C)cc1OCCCCCNC(=O)CCC(=O)Nc1cncc(Nc2ncc(Cl)c(-c3cccc(-c4ccccc4)c3)n2)c1)C(C)(C)C [Compound 53, N1-(5-((4-([1,1′-biphenyl]-3-yl)-5-chloropyrimidin-2-yl)amino)pyridin-3-yl)-N4-(5-(2-((S)-1-((2S,4R)-1-((S)-2-acetamido-3,3-dimethylbutanoyl)-4-hydroxypyrrolidine-2-carboxamido)ethyl)-5-(4-methylthiazol-5-yl)phenoxy)pentyl)succinimide]",–,110,–
"Cc1ncsc1-c1ccc(CNC(=O)[C@@H]2C[C@@H](O)CN2C(=O)[C@@H](NC(=O)C2(F)CC2)C(C)(C)C)c(OCCCCCCC(=O)N2CCC3(CC2)CCN(c2cncc(Nc4ncc(Cl)c(-c5cccc(-c6ccccc6)c5)n4)c2)C3=O)c1 [Compound 56, (2S,4R)—N-(2-((7-(2-(5-((4-([1,1′-biphenyl]-3-yl)-5-chloropyrimidin-2-yl)amino)pyridin-3-yl)-1-oxo-2,8-diazaspiro[4,5]decan-8-yl)-7-oxoheptyl)oxy)-4-(4-methylthiazol-5-yl)benzyl)-1-((S)-2(1-fluorocyclopropane-1-carboxamido)-3,3-dimethylbutanoyl)-4-hydroxypyrrolidine-2-carboxamide]",> 10000,620,–
Cc1ncsc1-c1ccc([C@H](C)NC(=O)[C@@H]2C[C@@H](O)CN2C(=O)[C@@H](NC(=O)CCCCCC(=O)N2CCC3(CC2)CCN(c2cncc(Nc4ncc(Cl)c(-c5cccc(-c6ccccc6)c5)n4)c2)C3=O)C(C)(C)C)cc1 [Compound 57],> 10000,42,–
